Assay results from ChEMBL document CHEMBL1139164, “Optimization of halopemide for phospholipase D2 inhibition” (Bioorg Med Chem Lett, 2007).
pIC50: −log10 of the molar value.

Assays:
Phospholipase D2 [1] = target: T1, Phospholipase D2 (Homo sapiens, UniProt O14939); experiment: Inhibition of PLD2 at 1 uM
[2] = Oral bioavailability in rat at 5 mg/kg; assay type: ADME, organism-based; conditions: in vivo
[3] = Cmax in rat at 5 mg/kg, po or 1 mg/kg, iv; assay type: ADME, organism-based; conditions: in vivo
Phospholipase D2 [4] = target: T1, Phospholipase D2
Rattus norvegicus = experiment: AUC in rat at 5 mg/kg, po or 1 mg/kg, iv; assay type: ADME, organism-based, Plasma; conditions: in vivo
[5] = Clearance in rat at 5 mg/kg, po or 1 mg/kg, iv; assay type: ADME, organism-based; conditions: in vivo
[6] = Half life in rat at 5 mg/kg, po or 1 mg/kg, iv; assay type: ADME, organism-based; conditions: in vivo

T1 sequence (O14939 whole entry): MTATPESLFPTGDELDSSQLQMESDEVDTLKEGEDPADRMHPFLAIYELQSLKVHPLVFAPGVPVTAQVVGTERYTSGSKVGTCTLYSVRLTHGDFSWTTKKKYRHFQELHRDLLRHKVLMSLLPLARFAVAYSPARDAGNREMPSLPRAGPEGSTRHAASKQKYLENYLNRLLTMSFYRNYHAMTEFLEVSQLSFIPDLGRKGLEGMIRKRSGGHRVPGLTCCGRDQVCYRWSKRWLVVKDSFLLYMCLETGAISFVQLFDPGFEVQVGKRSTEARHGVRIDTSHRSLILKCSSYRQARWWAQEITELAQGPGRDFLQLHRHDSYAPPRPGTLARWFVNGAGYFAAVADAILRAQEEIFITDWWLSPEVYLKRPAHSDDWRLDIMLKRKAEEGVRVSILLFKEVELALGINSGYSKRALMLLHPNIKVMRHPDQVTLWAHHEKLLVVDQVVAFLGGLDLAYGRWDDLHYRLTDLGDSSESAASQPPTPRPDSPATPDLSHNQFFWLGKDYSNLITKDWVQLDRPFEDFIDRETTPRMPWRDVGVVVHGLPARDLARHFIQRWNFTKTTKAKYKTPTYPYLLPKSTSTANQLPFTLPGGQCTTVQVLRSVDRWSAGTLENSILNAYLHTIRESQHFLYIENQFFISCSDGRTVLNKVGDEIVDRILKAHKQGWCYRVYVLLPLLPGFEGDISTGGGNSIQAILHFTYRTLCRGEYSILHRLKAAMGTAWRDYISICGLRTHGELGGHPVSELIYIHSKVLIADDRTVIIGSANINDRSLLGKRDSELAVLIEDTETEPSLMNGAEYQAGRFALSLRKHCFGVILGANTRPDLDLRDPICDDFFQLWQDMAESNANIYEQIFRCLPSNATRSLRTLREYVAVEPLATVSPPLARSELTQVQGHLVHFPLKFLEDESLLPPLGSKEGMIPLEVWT

Structure (SMILES)	inhibition (Phospholipase D2 [1]) [%]	pIC50 (Phospholipase D2 [4])	further results
Cn1c(C(=O)NCCN2CCC(n3c(=O)[nH]c4ccccc43)CC2)cc2ccccc21	0		
O=C(NCCN1CCC(n2c(=O)[nH]c3ccccc32)CC1)c1cc2cc(F)ccc2[nH]1		7.70	bioavailability [2]: 18.5%; Cmax [3]: 363 nM; AUC (Rattus norvegicus): 1.03 uM.hr/L; clearance [5]: 36.3 mL/min/kg; half-life [6]: 5.57 h
CC(C)C(=O)NCCN1CCC(n2c(=O)[nH]c3ccccc32)CC1	0		
O=C(NCCN1CCC(n2c(=O)[nH]c3ccccc32)CC1)c1ccccc1		5.82	
O=C(CCc1ccc(F)cc1)NCCN1CCC(n2c(=O)[nH]c3ccccc32)CC1	0		
O=C(NCCN1CCC(n2c(=O)[nH]c3ccccc32)CC1)c1cc2ccccc2[nH]1		7.70	
O=C(NCCN1CCC(n2c(=O)[nH]c3ccccc32)CC1)c1ccsc1		6.00	
O=C(NCCN1CCC(n2c(=O)[nH]c3ccccc32)CC1)c1ccc(F)cc1		5.85	
O=C(Cc1ccc(F)cc1)NCCN1CCC(n2c(=O)[nH]c3ccccc32)CC1	0		
CC(C)CC(=O)NCCN1CCC(n2c(=O)[nH]c3ccccc32)CC1	0		
O=C(NCCN1CCC(n2c(=O)[nH]c3ccccc32)CC1)OCc1ccccc1	0		
O=C(NCCN1CCC(n2c(=O)[nH]c3ccccc32)CC1)c1cc2ccccc2s1		5.70	
